Common to all, as to type: cell-based
In assay [1] the test system is Ras-transformed 3T3 cells (IL-1-induced signal transduction via the Type I IL-1 receptor). The assay is described as follows: DAG and PA generated after stimulation of Ras-transformed 3T3 cells with IL-1β. Conditions: FIGS. 11 and 12, IL-1β stimulation. An excerpt: FIGS. 11 and 12 show the effects of CT1595 on the amount of DAG (diacylglycerol) (FIG. 11) and PA (Phosphatidic acid) (FIG. 12) generated at different times after stimulation of Ras-transformed 3T3 cells with IL-1β. CT1595 is a potent drug to inhibit enzyme activity that generates PA and then DAG by inhibiting IL-1-induced signal transduction, through this second messenger pathway, via the Type I IL-1 receptor. The inhibiting activity was not in a dose-response manner, indication that the IC50 concentration for inhibiting cellular second messenger signaling is probably below 500 nM.
One in vitro assay measures inhibition of the relevant enzymes lysophosphatidic acid acyltransferase (LPAAT) and phosphatidic acid phosphoryl hydrolase (PAPH). […] It is important to note that the assay method permits discrimination between various forms of PA and DAG so that those relevant to the pathway affected by the (R) or (S) compounds of the invention can be measured directly. […] Thus, the relevant unsaturated (non-arachidonic) PA and DAG subspecies may be detected. […]

For assay [2], the system named is CMV promoter activity in transformed (adenovirus) cells. The assay is described as follows: CMV promoter assay (gene transcription and translation, cytotoxic activity). Conditions: read-out: IC50 (μM), CMV promoter assay. An excerpt: This example illustrates data regarding proliferative activity of various inventive compounds for inducting CMV promoter activity. The CMV promoter assay measures gene transcription and translation activity wherein any active compounds will nave cytotoxic activity to inhibit cellular protein synthesis machinery in transformed (adenovirus) cells.

Assay [3] concerns murine splenocytes. The assay is described as follows: inhibition of murine splenocyte proliferation stimulated by anti-mu and IL-4. Conditions: FIG. 5; anti-mu (10 μg/ml) and IL-4 (12.5 ng/ml). As to the method:
Drug was added to the cells at the doses indicated two hours prior to activation with anti-mu and IL-4. This in vitro assay is a model for immune suppression and treatment or prevention of autoimmune diseases. […] Background counts were less than 200 cpm.
There are a series of in vitro assays that can be used to measure immunosuppressive activity of a particular compound. These assays are a predictive model for treatment or prevention of autoimmune diseases, such as diabetes, lupus, arthritis, and the like. A first assay measures immunosuppressive activity of a drug at the B cell level. Spleens from adult mice contain immature B cells that express surface IgM. Cross-linking the surface IgM with an anti-mu antibody results in B cell proliferation. Additionally, this activation results in an increased expression of interleukin-4 receptors(IL-4R) on the surface of such cells. IL-4 acts as a growth factor for B cells and will increase the amount of proliferation induced by anti-mu. In the first assay, a mixture of anti-mu and murine IL-4 is added to murine splenocytes to cause their proliferation. Mice spleens are obtained from adult mice and a single cell suspension is prepared in RPMI 1640 medium supplemented with 10% FCS. […] Proliferation is determined on the third day with a pulse of tritiated thymidine. […]

Assay [4] deals with Saccharomyces cervisiae. The assay is described as follows: yeast growth inhibition. Conditions: FIG. 6. As to the method: This assay measures anti-yeast and anti-fungal activity of the drugs tested.
Some of the inventive compounds are effective for inhibiting yeast cell growth. This effect can be assayed by measuring growth of the yeast strain Saccharomyces cervisiae. A control yeast stain Saccharomyces cervisiae (BIO 101, Inc.) is grown overnight in YEPD broth at 30° C. An one to hundred dilution of the yeast culture is made with fresh YEPD broth. 100 μl Aliquots of the diluted culture are distributed into 96-wells titer plates. 100 μl Aliquots of drug is diluted in YEPD broth were then added to the wells. The titer plates are incubated at room temperature with continuous shaking. The cell density of the individual cultures are determined using a mircoplate reader with a A630 filter. The A630 of the individual yeast cultures are compared to control samples without adding drug. This assay is predictive of direct antimicrobial, particularly yeast and fungal, activity of the drugs studied.
This example illustrates the effects of CT2501R (a reference compound), CT1529, CT1589 and CT1519 (see Table 1 for chemical names) on yeast growth (Saccharomyces cervisiae) in the presence or absence of drug. This assays measures anti-yeast and anti-fungal activity of the drugs tested.

The IC50 is the concentration that inhibits the measured activity by half.

A value given as a limit tells only on which side of the number the result lay.

Regarding `Cn1cnc2c1c(=O)n(CCCCC(=O)CCl)c(=O)n2C` [CT1595, 1-(6-chloro-5-oxohexyl)-3,7-dimethylxanthine], the “inhibition of DAG and PA generation” value in assay [1] (in words) is “the overall signal is being significantly inhibited”. Also, the IC50 in assay [1] (Mus musculus, NIH3T3, "probably" below, read-out: IC50 for inhibiting cellular second messenger signaling) was less than 0.5 µM; in assay [2] it was 20 µM. Besides, the “inhibition of splenocyte proliferation” value in assay [3] is on record as “most potent inhibitors of splenocyte proliferation in a dose-response manner”. Further, in assay [4], the yeast growth inhibition result is reported as “strongly inhibited yeast growth”.

(Values after patent publication US5670506A, “Halogen, isothiocyanate or azide substituted xanthines” (Cell Therapeutics, Inc., priority 1993, dated 1997).)
